Assay results reported in PubChem BioAssay (NCI).
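All cell lines were grown in 96-well plates and treated with compound for 48 hours. Abbreviation: GI50, concentration required for 50% inhibition of growth. TGI: concentration producing complete growth inhibition.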

Experiments:
Assay in all cases: NCI tumour cell line growth inhibition, 48 h
BT-549 breast = test system: BT-549 breast
MDA-MB-231 breast = test system: MDA-MB-231 breast
SNB-75 CNS = test system: SNB-75 CNS
A498 renal = test system: A498 renal
HT29 colon = test system: HT29 colon
A549 NSCLC = test system: A549 NSCLC
RPMI-8226 leukemia = test system: RPMI-8226 leukemia
UACC-62 melanoma = test system: UACC-62 melanoma
SK-OV-3 ovarian = test system: SK-OV-3 ovarian
HOP-92 NSCLC = test system: HOP-92 NSCLC

Row | SMILES | TGI (BT-549 breast) [µM] | TGI (MDA-MB-231 breast) [µM] | TGI (SNB-75 CNS) [µM] | TGI (A498 renal) [µM] | TGI (HT29 colon) [µM] | TGI (A549 NSCLC) [µM] | TGI (RPMI-8226 leukemia) [µM] | TGI (UACC-62 melanoma) [µM] | TGI (SK-OV-3 ovarian) [µM] | TGI (HOP-92 NSCLC) [µM] | GI50 (BT-549 breast) [µM] | GI50 (MDA-MB-231 breast) [µM] | GI50 (A498 renal) [µM] | GI50 (A549 NSCLC) [µM] | GI50 (UACC-62 melanoma) [µM] | GI50 (SK-OV-3 ovarian) [µM]
1 | OC(CCN1CCN(CCOC(c2ccc(F)cc2)c2ccc(F)cc2)CC1)c1ccc(Br)cc1 (configuration not stated) | 12.5 | 19.9 | 23.7 | 8.04 | 12.7 | 24.1 | 6.93 | 12.7 | 19.8 | 13.7 | – | – | – | – | – | –
2 | COc1ccc2c(c1)-c1nc(=S)n(CCN(C)C)c3ccc([N+](=O)[O-])c(c13)N2 | 24 | 2.68 | 2.7 | 24.5 | 2.25 | 2.28 | 2.76 | 23.5 | 18 | 27.7 | – | – | – | – | – | –
3 | Cc1ccc2nc(Nc3ccccc3C)c(Nc3ccccc3C)nc2c1 | – | > 100 | > 96.6 | 69.6 | > 81.1 | 49.1 | > 100 | > 90.7 | > 100 | 54.1 | – | – | – | – | – | –
4 | Fc1cccc(F)c1C1SCc2nc3cc(Cl)ccc3n21 (configuration not stated) | > 45.6 | > 100 | > 100 | – | 31.3 | > 100 | 69.2 | > 100 | > 100 | > 100 | – | – | – | – | – | –
5 | O=C1c2cc3c(cc2-c2c1c1cc(F)c(F)cc1c(=O)n2C[C@H](O)CO)OCO3 | 2.22 | 3.18 | – | 0.254 | – | 1.12 | – | 0.0678 | 0.641 | – | 0.0727 | 0.378 | 0.0834 | 0.069 | 0.0153 | 0.0481
6 | CN(C)C(=O)/N=C1\SC(=Nc2ccccc2)C(=Nc2ccccc2)N1c1ccc([N+](=O)[O-])cc1 | > 100 | > 100 | > 100 | > 100 | > 100 | – | > 100 | > 100 | > 100 | – | – | – | – | – | – | –
7 | Fc1ccc(OCc2ccc3nc(-c4ccccc4)c(Cl)nc3c2)cc1 | 85.8 | 47.3 | 42.8 | 50.1 | > 100 | > 100 | > 100 | > 100 | – | 50.1 | – | – | – | – | – | –
8 | CSc1ncnc2c1cnn2Cc1cn(COCC(O)CO)nn1 (configuration not stated) | > 100 | > 100 | – | > 100 | > 100 | > 100 | > 100 | > 100 | > 100 | > 100 | – | – | – | – | – | –
9 | Cn1c2ccccc2c2c3c(=O)[nH][nH]c(=O)c3c3c4ccccc4n(C)c3c21 | > 100 | > 100 | > 100 | > 100 | > 100 | > 100 | > 100 | > 100 | > 100 | > 100 | – | – | – | – | – | –
10 | Cc1nn(C(=O)c2ccccc2O)c2c1C(c1ccc([N+](=O)[O-])cc1)SC(N)=N2 (configuration not stated) | > 10 | > 10 | > 8.41 | > 10 | > 10 | > 10 | > 10 | > 10 | > 10 | > 10 | – | – | – | – | – | –
11 | C[C@@](Br)(C(=O)O)[C@H](Br)C(=O)O | > 100 | > 100 | > 100 | > 100 | > 100 | > 100 | > 100 | > 100 | > 100 | > 100 | – | – | – | – | – | –
12 | COc1ccc(C(=C2C(=O)OC(=O)C2=C(C)C)c2ccc(OC)cc2)cc1 | > 100 | > 100 | > 100 | > 100 | > 100 | > 100 | > 100 | > 100 | > 100 | > 100 | – | – | – | – | – | –
13 | CCOC(=O)c1c(-c2ccc(OC)cc2)c(C#N)c(=S)n(C2OC(CO)C(O)C(O)C2O)c1C (configuration not stated) | – | > 100 | > 100 | > 100 | > 100 | > 100 | – | – | > 100 | > 100 | – | – | – | – | – | –
14 | CC(C)NC(=O)OCc1c(COC(=O)NC(C)C)n(C)c2c1ccc1cc(Cl)c(Cl)cc12 | 30.7 | 25.3 | 28.4 | 4.85 | 29.3 | 95.7 | 39.5 | 28 | 63.3 | 24.3 | – | – | – | – | – | –
15 | O/N=C/[C@H]1COC2(CCCCC2)O1 | – | > 100 | > 100 | > 100 | > 100 | > 100 | > 100 | > 100 | > 100 | > 100 | – | – | – | – | – | –
16 | O=c1ccn([C@@H]2C=C(CO)[C@@H](O)[C@H]2O)c(=O)[nH]1 | – | – | 431 | – | > 625 | > 625 | – | > 625 | > 625 | > 625 | – | – | – | – | – | –
17 | Clc1sc(Cl)c2c1[C@H](Br)C[C@@H]2Cl | 40.3 | 51.3 | > 100 | – | > 100 | > 100 | > 100 | 69.1 | > 100 | – | – | – | – | – | – | –
18 | Cc1ccc(S(=O)(=O)N2CCc3cc(O)c([N+](=O)[O-])cc32)cc1 | > 100 | > 100 | > 100 | > 100 | – | > 100 | – | > 100 | > 100 | – | – | – | – | – | – | –
19 | CCC(C)C(NC(=O)C(CCCC[N+](=N)N)NC(=O)C(CCCC[N+](=N)N)NC(=O)c1ccc(OC)cc1)C(=O)NC(CCCC[N+](=N)N)C(=O)N1CCCC1C(=O)NC(CCCCN)C(=O)NC(CC(C)C)C(N)=O (configuration not stated) | > 100 | > 100 | > 100 | > 100 | > 100 | > 100 | > 100 | > 100 | > 100 | – | – | – | – | – | – | –
20 | CC(=O)Nc1ccc2c(c1)nc1c3ccccc3ccn21 | > 100 | > 100 | > 100 | > 100 | > 100 | > 100 | – | > 100 | > 100 | > 100 | – | – | – | – | – | –
21 | O=C1C=CC(=O)c2c(O)c(N3CCN(c4ncccn4)CC3)c(Cl)c(O)c21 | 3.86 | 3.75 | 21.8 | 6.49 | 6.73 | 22.6 | – | 6.02 | 38.6 | 4.72 | – | – | – | – | – | –
22 | CCC1(c2ccc(OC)c(OC)c2)CCN2C(=O)C(O)CC21 (configuration not stated) | > 100 | > 100 | > 100 | – | > 100 | > 100 | – | > 100 | > 100 | – | – | – | – | – | – | –
